From PMC9734138, “Structure of the AlgKX modification and secretion complex required for alginate production and biofilm attachment in Pseudomonas aeruginosa” (Nature Communications, 2022)

How the values were obtained:
AlgXPp [1] = target: T1, AlgXPp (Pseudomonas putida, UniProt Q88ND0); assay: Direct nanoESI-MS binding assay of the single proteins with reference protein correction for nonspecific binding, 200 mM aqueous ammonium acetate pH 7, 25 °C by the table title (21 °C in the methods).; set-up: gene algX
Description: (§1) AlgXPp and AlgKPp stock solutions were buffer exchanged into 200 mM aqueous ammonium acetate (pH 7) using a 10 kDa cut-off Amicon 0.5 mL microconcentrators (EMD, Millipore, Billerica, MA). Stock solutions of oligosaccharides were prepared by dissolving a known amount of solid compound in Milli-Q water and stored at −20 °C until used. Nanoelectrospray (nanoESI) mass spectrometry measurements were performed on a Q Exactive Orbitrap (Orbitrap) mass spectrometer (Thermo Fisher Scientific, Bremen, Germany) and on a Q Exactive Ultra-High Mass Range Orbitrap mass spectrometer (Thermo Fisher Scientific, Bremen, Germany), both equipped with a nanoflow ESI source. NanoESI was performed by applying a voltage of ~0.8 kV to a platinum wire inserted into the nanoESI tip, which was produced from a borosilicate glass capillary (1.0 mm o.d., 0.78 mm i.d.) pulled to ~2 μm o.d. using a P − 1000 micropipette puller (Sutter Instruments, Novato, CA). The inlet capillary of the MS was heated to 120 °C, the S-lens RF level was set at 100, automatic gain control target was set at 1 × 10^6 with a maximum injection time of 200 ms. All MS data were acquired and processed using Thermo Xcalibur 4.1 software.
(§2) Association constants (Ka,kL and Ka,xL) for interactions of AlgKPp and AlgXPp with oligosaccharide ligands were obtained using the direct ESI-MS assay[68],[69]. The binding measurements were carried out at 21 °C, and the equilibrium mixtures were prepared by mixing aliquots of the stock solutions of proteins and ligands in aqueous ammonium acetate (200 mM). ESI-MS measurements were performed after a 1 h incubation time period. All mass spectra were corrected, when needed, for the occurrence of nonspecific carbohydrate-protein binding during the ESI process using the reference protein method. Ka,kL and Ka,xL values were determined from the abundance ratio (R) of the ligand-bound (PL) to free protein (P) ions (P can be AlgKPp or AlgXPp), after correction for nonspecific ligand binding, and the initial concentrations of protein ([P]0) and ligand ([L]0), Eq. (1):1 R/R+1=KaP0+KaL0+1−(1−KaL0+KaP0)^2+4KaL0/2KaP0 where R is taken to be equal to the corresponding equilibrium concentration ratio ([PL]/[P]) in solution, Eq. (2):2 R=∑Ab(PL)/∑Ab(P)=[PL]/[P] and Ka is Ka,kL or Ka,xL.
Target sequence in this assay (Q88ND0 whole entry): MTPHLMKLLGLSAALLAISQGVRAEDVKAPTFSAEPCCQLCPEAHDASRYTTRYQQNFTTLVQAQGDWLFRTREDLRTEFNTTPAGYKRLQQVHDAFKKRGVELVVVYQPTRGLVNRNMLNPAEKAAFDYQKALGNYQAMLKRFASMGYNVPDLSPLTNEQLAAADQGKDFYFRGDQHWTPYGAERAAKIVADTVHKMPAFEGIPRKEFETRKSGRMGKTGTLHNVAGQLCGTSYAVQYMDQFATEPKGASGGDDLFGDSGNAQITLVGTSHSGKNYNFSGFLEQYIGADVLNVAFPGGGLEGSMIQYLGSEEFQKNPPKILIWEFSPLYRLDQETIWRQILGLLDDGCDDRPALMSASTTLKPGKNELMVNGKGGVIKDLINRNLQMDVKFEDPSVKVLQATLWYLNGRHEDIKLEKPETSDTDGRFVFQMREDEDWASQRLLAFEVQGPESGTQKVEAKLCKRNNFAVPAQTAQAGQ

AlgKPp = AlgKPp (Pseudomonas putida, UniProt Q88NC7); assay: as above; set-up: gene algK
Description: as §1, §2

AlgKXPp = AlgKXPp (Pseudomonas putida, UniProt Q88NC7+Q88ND0); assay: NanoESI-MS ligand titration of the AlgK-AlgX mixture, Ka,kxL fitted from the ligand-bound fraction of the complex with a coupled-equilibria model, 200 mM aqueous ammonium acetate pH 7, 25 °C by the table title (21 °C in the methods).; assay type: binding; details: n = 3
Description: as §1
(§3) The Ka,kx for the interaction of AlgKPp and AlgXPp with the formation of AlgKXPp complex was obtained using the Slow Mixing Mode (SLOMO) ESI-MS assay. Briefly, ~2 µL of a solution of AlgXPp (5 µM) and AlgKPp (3–10 µM) was introduced into the nanoESI tip, followed by injection of 10 µL of solution of AlgXPp (5 µM) and AlgKPp (45 µM). The binding measurements were carried out at 21 °C; time-resolved mass spectra were averaged over 1 min intervals and the sum of the charge state-normalized abundances of the […] and AlgKXPp complex ions were calculated automatically using the SWARM software (https://github.com/pkitov/CUPRA-SWARM)[72]. The corrected (for response factors) abundances of AlgXPp and AlgKXPp species were used to calculate R/(R+1) values for AlgKPp (designated as L) and AlgXPp (designated as P) interaction and association constant Ka,kx was found using Eq. (1) (Ka,kx in this case designated as Ka in Eq. (1)).
(§4) 3b AlgXPpL⇌AlgXPp+L,Ka,xL=[AlgXPpL]/AlgXPp[L] 3c AlgKXPp⇌AlgKPp+AlgXPp,Ka,kx=[AlgKXPpL]/AlgKPp[AlgXPp] 3d AlgKXPpL⇌AlgKXPp+L,Ka,kxL=[AlgKXPL]/AlgKXPpLL
(§5) The corresponding mass balance equations are shown below:4a [L]0=[L]+[AlgKPpL]+[AlgXPpL]+[AlgKXPpL] 4b [AlgKPp]0=[AlgKPp]+[AlgKPpL]+[AlgKXPp]+[AlgKXPpL] 4c [AlgXPp]0=[AlgXPp]+[AlgXPpL]+[AlgKXPp]+[AlgKXPpL] where […], […], and [L]0 are initial concentrations of AlgKPp, AlgXPp, and oligosaccharide ligand L; Ka,kL, Ka,xL, and Ka,kx are association constant values determined as described above, and Ka,kxL is unknown parameter found by the fitting of the model to experimental data.

AlgKXPp complex = target: T2, AlgKXPp complex (Pseudomonas putida, UniProt Q88NC7+Q88ND0); assay: ESI-MS alginate binding assay, AlgKXPp complex (binding model fit); details: AlgKPp and AlgXPp 5 µM each, ligand 100 µM, ammonium acetate 200 mM pH 7.0
T2 construct: Induced cells containing either pET26b P. putida AlgK^33–484 or pET24b P. putida AlgX^∆Nterm; His6 (C); made in house; host or cells: E. coli BL21 (DE3) CodonPlus (AlgK) and E. coli Lemo21 (DE3) (AlgX)
Description: as §1, §4, §5

AlgXPp [2] = target: T1, AlgXPp; assay: Slow Mixing Mode (SLOMO) ESI-MS assay of AlgKPp-AlgXPp complex formation; assay type: binding; set-up: His6 (C); made in house; host or cells: E. coli Lemo21 (DE3); details: for Fraction of bound AlgX: mean, n = 3
Description: as §1, §3

[3] = read-out: Ka (M^-1) (AlgKPp), Ka (M^-1) (AlgXPp)

AlgKXPp, sequence (Q88ND0 whole entry, one chain of several): as the sequence (Q88ND0 whole entry) above

alginate hexasaccharide of alternating alpha-L-guluronate (G) and beta-D-mannuronate (M) [GMGMGM]
Ka (M^-1) (AlgKPp); Ka (M^-1) (AlgXPp) (AlgXPp [1]): (4.5 ± 1.0) × 10^2 M-1
Ka (M^-1) (AlgKPp); Ka (M^-1) (AlgXPp) (AlgKPp): (2.5 ± 0.1) × 10^2 M-1
Ka (M^-1) (AlgKXPp) (AlgKXPp): (12 ± 0.7) × 10^2 M-1

alginate heptasaccharide of alternating alpha-L-guluronate (G) and beta-D-mannuronate (M) [GMGMGMG]
Ka (M^-1) (AlgKPp); Ka (M^-1) (AlgXPp) (AlgXPp [1]): (2.7 ± 0.3) × 10^2 M-1
Ka (M^-1) (AlgKXPp) (AlgKXPp): (18 ± 0.6) × 10^2 M-1

alginate hexasaccharide of alpha-L-guluronate (G) and beta-D-mannuronate (M), sequence GMGGMG
Ka (M^-1) (AlgKPp); Ka (M^-1) (AlgXPp) (AlgXPp [1]): (1.4 ± 0.3) × 10^2 M-1
Ka (M^-1) (AlgKPp); Ka (M^-1) (AlgXPp) (AlgKPp): (3.0 ± 0.9) × 10^2 M-1
Ka (M^-1) (AlgKXPp) (AlgKXPp): (5.4 ± 0.5) × 10^2 M-1

CCCO[C@@H]1O[C@H](C(=O)O)[C@@H](O[C@@H]2O[C@H](C(=O)O)[C@@H](O[C@@H]3O[C@H](C(=O)O)[C@@H](O[C@@H]4O[C@H](C(=O)O)[C@@H](O[C@@H]5O[C@H](C(=O)O)[C@@H](O[C@@H]6O[C@H](C(=O)O)[C@@H](O[C@@H]7O[C@H](C(=O)O)[C@@H](O)[C@H](O)[C@@H]7O)[C@H](O)[C@@H]6O)[C@H](O)[C@@H]5O)[C@H](O)[C@@H]4O)[C@H](O)[C@@H]3O)[C@H](O)[C@@H]2O)[C@H](O)[C@@H]1O [ManA7, heptamer of beta-D-mannuronic acid (1-4 linked, polyM heptasaccharide)]
Kd (AlgXPp [1]; [3]): 3850 µM
Kd (AlgKPp; [3]): 2380 µM
Kd (AlgKXPp; read-out: Ka (M^-1) (AlgKXPp)): 1000 µM

pentadeca-hyaluronic acid [HA15, reference compound]
ligand binding to AlgKXPp detected by ESI-MS (AlgKXPp complex): No ligand binding was detected
ligand binding to AlgKXPp detected by ESI-MS (AlgKXPp complex; listed as 15-mer of hyaluronic acid): no specific binding

B1: AlgK: P. putida KT2440 AlgK residues 33–484, His-tagged TPR-containing lipoprotein (protein)
chain: CAGLPDQRLAQEALERGDLATAQSNYQALAAMGYADAQVGLADMQVASGDSAQQAKAEKLYREAAQTSPRARARLGKWLAAKPGASDAEHREAERLLSQAFEQGEDSALVPLIVLYLQYPQSWPEIDPQQRIDQWRARGLPQADLAQIILYRTQGTYAQHLGEIEQVCQRWLRRMDVCWYELATVYQMQGNAEKQKVLLEQLRAAYKAGRVPGERVDSVAGVLADGELGQPDPQTAQALLEEIAPSYPAAWVSLAKLLYDYPDQGDLEKMLGYLKNAQDAAQPRAELLLGRLYYDGKWAPQDPRKAERHLLKAAASEPQANYYLGQIYRRGFLGKVYPQKAVDHLILAARAGQASADMALAQLWSQGRGIQPNRVNAYVFGQLAVQQQVPQASDLLGQIEAQLPPAERSQAQQLLKREQQSRGNNWQATVSLLQSQDSPINEEEPESL
Fraction of bound AlgX (AlgXPp [2]; concentration of AlgK 3 µM): 0.22
Fraction of bound AlgX (AlgXPp [2]; concentration of AlgK 5 µM): 0.24
Fraction of bound AlgX (AlgXPp [2]; concentration of AlgK 7.5 µM): 0.31
Fraction of bound AlgX (AlgXPp [2]; concentration of AlgK 10 µM): 0.42

B2: AlgKXPp: 1:1 complex of P. putida AlgK and AlgX (protein, UniProt Q88NC7 33-484; Q88ND0 25-479, looked up)
Alginate biosynthesis protein … 1: CAGLPDQRLANEALKRGDTALAERNYKALADLGYSEAQVGLADIKVATRDPSQIKEAEATYRAAAATSPRAQARLGRLLVAKPDSTQAEREEAETLLKQAAKQGQSNTLIPLAMLYLSYPQSFPKVNAQQQIDQWRAAGNPEAGLAQVLLYRTQGTYDQHLGEVEKICKAALNTTDICYVELATVYQKRGQADQQAALLGQLKSAYARGAVPATRVDSVARVLADRSLGQTDEKTAKELLEQVAPANPASWVSLAQLVYDFPELGDTDQLMAYIDKGREAEQPRAELLLGRLYYEGKTLPADAQKAEQHLQAAAEAGEISAHYYLGQLYRRGYLGNVEPQKAVDHLLAAARGGQNSADYALAQLFSEGHGIRPQPGNAWVFAQLSQANPTPQSAELLQQLDQQLTPDQRNQAQQLLDQEKRARGSLAQGANSTLALEALQDDEKEVDGEDSL
Alginate biosynthesis protein … 2: EDVKAPTFSAEPCCQLCPEAHDASRYTTRYQQNFTTLVQAQGDWLFRTREDLRTEFNTTPAGYKRLQQVHDAFKKRGVELVVVYQPTRGLVNRNMLNPAEKAAFDYQKALGNYQAMLKRFASMGYNVPDLSPLTNEQLAAADQGKDFYFRGDQHWTPYGAERAAKIVADTVHKMPAFEGIPRKEFETRKSGRMGKTGTLHNVAGQLCGTSYAVQYMDQFATEPKGASGGDDLFGDSGNAQITLVGTSHSGKNYNFSGFLEQYIGADVLNVAFPGGGLEGSMIQYLGSEEFQKNPPKILIWEFSPLYRLDQETIWRQILGLLDDGCDDRPALMSASTTLKPGKNELMVNGKGGVIKDLINRNLQMDVKFEDPSVKVLQATLWYLNGRHEDIKLEKPETSDTDGRFVFQMREDEDWASQRLLAFEVQGPESGTQKVEAKLCKRNNFAVPAQTAQAGQ
association constant (Ka) for 1:1 AlgKXPp complex formation (AlgXPp [2]; SLOMO ESI-MS, AlgXPp 5 µM, 21 °C): 8.9 ± 0.9 × 10^4 M^−1
